The IC50 is the concentration needed to halve the response being measured.

For the first test, the target named is T1, HDM2 (Homo sapiens, UniProt Q00987).
T1 construct: Thioredoxin (N); made in house; host or cells: E. coli strain BL21(DE3)Rosetta
T1 sequence (Q00987 17-125): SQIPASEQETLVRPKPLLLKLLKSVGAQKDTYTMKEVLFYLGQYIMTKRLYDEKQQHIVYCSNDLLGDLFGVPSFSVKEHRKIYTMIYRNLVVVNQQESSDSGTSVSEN
Briefly: HDM2 FRET assay (inhibition of binding of FITC labeled p53-pocket peptide to HDM2). Particulars: 0.5 nM HDM2 (residues 17 to 125), 3nM peptide, two hour incubation at room temperature; read-out: FRET IC50. In short, it runs like this:
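Compounds were tested in 10-point serial dilution against 0.5 nM recombinant HDM2 binding 3 nM fluorescein-labeled p53-pocket peptide. Detection used 0.25 nM terbium cryptate anti-6xHis antibody in PBS buffer containing 0.01% BSA and 0.01% Tween-20.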
`C[C@H]1CC[C@H](Cn2c(N3CCC[C@H]3CF)nc3nc(-c4n[nH]c(=O)o4)nc(-c4cncc(Cl)c4)c32)CC1` [Example 16.104, 5-{6-(5-chloropyridin-3-yl)-8-[(2S)-2-(fluoromethyl)pyrrolidin-1-yl]-7-[(trans-4-methylcyclohexyl)methyl]-7H-purin-2-yl}-1,3,4-oxadiazol-2(3H)-one]: the IC50 amounted to 3.91 nM.

In the case of `C[C@@H](Nc1nc(N2CCC[C@@H]2C(=O)O)nc2nc(N3CCOC[C@H]3c3ccccc3)n(C[C@H]3CC[C@H](C)CC3)c12)C1CCC1` [Example 13.4, 1-(6-{[(1R)-1-cyclobutylethyl]amino}-7-[(trans-4-methylcyclohexyl)methyl]-8-[(3R)-3-phenylmorpholin-4-yl]-7H-purin-2-yl)-D-proline], the IC50 stood at 96.1 nM.

On to `COC(C)(C)[C@@H]1COCCN1c1nc2nc(-c3noc(=O)[nH]3)nc(-c3cccc(Cl)c3)c2n1C[C@H]1CC[C@H](C)CC1` [Example 16.63, 3-{6-(3-chlorophenyl)-8-[(3S)-3-(1-methoxy-1-methylethyl)morpholin-4-yl]-7-[(trans-4-methylcyclohexyl)methyl]-7H-purin-2-yl}-1,2,4-oxadiazol-5(4H)-one], for which the IC50 was 19.7 nM.

Turning to `C[C@H]1CC[C@H](Cn2c(N3CCO[C@@H]4CCC[C@H]43)nc3nc(-c4n[nH]c(=O)o4)nc(-c4cccc(Cl)c4)c32)CC1` [Example 16.84, 5-{6-(3-chlorophenyl)-8-[(4aR,7aR)-hexahydrocyclopenta [b][1,4]oxazin-4(4aH)-yl]-7-[(trans-4-methylcyclohexyl)methyl]-7H-purin-2-yl}-1,3,4-oxadiazol-2(3H)-one], the IC50 worked out at 2.47 nM.

For `C[C@H]1CC[C@H](Cn2c(N3CCOCC34CC4)nc3nc(-c4noc(=O)[nH]4)nc(-c4cccc(Cl)c4)c32)CC1` [Example 16.79, 3-[6-(3-chlorophenyl)-7-[(trans-4-methylcyclohexyl)methyl]-8-(7-oxa-4-azaspiro[2.5]oct-4-yl)-7H-purin-2-yl]-1,2,4-oxadiazol-5(4H)-one], the IC50 turned out to be 21.6 nM.

On to `C[C@H]1CC[C@H](Cn2c(N3CCO[C@@H]4CCC[C@H]43)nc3nc(-c4noc(=O)[nH]4)nc(-c4cncc(Cl)c4)c32)CC1` [Example 16.87, 3-{6-(5-chloropyridin-3-yl)-8-[(4aR,7aR)-hexahydrocyclopenta [b][1,4]oxazin-4(4aH)-yl]-7-[(trans-4-methylcyclohexyl)met52hyl]-7H-purin-2-yl}-1,2,4-oxadiazol-5(4H)-one], for which the IC50 turned out to be 1.56 nM.

Turning to `C[C@H]1CC[C@H](Cn2c(N3CCOC[C@H]3c3ccccc3)nc3nc(-c4n[nH]c(=O)o4)nc(-c4cc(Cl)cnc4O)c32)CC1` [Example 16.163, 5-{6-(5-chloro-2-hydroxypyridin-3-yl)-7-[(trans-4-methylcyclohexyl)methyl]-8-[(3R)-3-phenylmorpholin-4-yl]-7H-purin-2-yl} -1,3,4-oxadiazol-2(3H)-one], the IC50 was 1.23 nM.

The test is the same for the next values; noted with them: FRET IC50.
As to `C[C@@H](Nc1nc(C(=O)O)nc2nc(N3C4CCC3COC4)n(Cc3ccc(C(F)(F)F)cc3)c12)C1CCC1` [Example 9.76, 6-{[(1R)-1-cyclobutylethyl]amino}-8-(3-oxa-8-azabicyclo[3.2.1]oct-8-yl)-7-[4-(trifluoromethyl)benzyl]-7H-purine-2-carboxylic acid], the IC50 is 15.9 nM.

Staying with this test, now noted: Table 9; read-out: FRET IC50.
Take `C[C@@H](Nc1nc(C(=O)O)nc2nc(N3CCOC[C@@H]3C)n(Cc3ccc(Cl)cc3)c12)C1CC1` [Example 9.28, 7-(4-chlorobenzyl)-6-{[(1R)-1-cyclopropylethyl]amino}-8-[(3S)-3-methylmorpholin-4-yl]-7H-purine-2-carboxylic acid]: the IC50 was found to be 143 nM.

Regarding `C[C@@H](Nc1nc(-c2noc(=O)[nH]2)nc2nc(N(C)CC(C)(C)C)n(Cc3ccc(C(F)(F)F)cc3)c12)C1CCC1` [Example 9.84, 3-(6-{[(1R)-1-cyclobutylethyl]amino}-8-[(2,2-dimethylpropyl)(methyl)amino]-7-[4-(trifluoromethyl)benzyl]-7H-purin-2-yl)-1,2,4-oxadiazol-5(4H)-one], the IC50 was 13.3 nM.

`C[C@@H](Nc1nc(C(=O)O)nc2nc(N3CCCC(C)(C)C3)n(Cc3ccc(C(F)(F)F)cc3)c12)C1CCC1` [Example 9.45, 6-{[(1R)-1-cyclobutylethyl]amino}-8-(3,3-dimethylpiperidin-1-yl)-7-[4-(trifluoromethyl)benzyl]-7H-purine-2-carboxylic acid]: the IC50 was 7.57 nM.

Take `C[C@@H](Nc1nc(-c2noc(=O)[nH]2)nc2nc(N3CCOCC3(C)C)n(Cc3ccc(C(F)(F)F)cc3)c12)C1CCC1` [Example 9.88, 3-(6-{[(1R)-1-cyclobutylethyl]amino}-8-(3,3-dimethylmorpholin-4-yl)-7-[4-(trifluoromethyl)benzyl]-7H-purin-2-yl)-1,2,4-oxadiazol-5(4H)-one]: the IC50 turned out to be 12.2 nM.

As for `C[C@@H](Nc1nc(C(=O)O)nc2nc(N3CCOC(c4ccccc4)C3)n(Cc3ccc(C(F)(F)F)cc3)c12)C1CCC1` (stereo partly drawn) [Example 9.22, 6-{[(1R)-1-cyclobutylethyl]amino}-8-(2-phenylmorpholin-4-yl)-7-[4-(trifluoromethyl)benzyl]-7H-purine-2-carboxylic acid], the IC50 is 12.4 nM.

Staying with this test, now noted: Table 11; read-out: FRET IC50.
For the compound `C[C@@H](Nc1nc(-c2noc(=O)[nH]2)nc2nc(N3CCCOCC3)n(C[C@H]3CC[C@H](C)CC3)c12)C1CCC1` [Example 11.105, 3-[6-{[(1R)-1-cyclobutylethyl]amino}-7-[(trans-4-methylcyclohexyl)methyl]-8-(1,4-oxazepan-4-yl)-7H-purin-2-yl]-1,2,4-oxadiazol-5(2H)-one], the IC50 was 42.6 nM.

In the case of `C[C@@H](Nc1nc(-c2noc(=O)[nH]2)nc2nc(N(C)Cc3noc(C4CC4)n3)n(C[C@H]3CC[C@H](C)CC3)c12)C1CCC1` [Example 11.75, 3-(6-{[(1R)-1-cyclobutylethyl]amino}-8-{[(5-cyclopropyl-1,2,4-oxadiazol-3-yl)methyl](methyl)amino}-7-[(trans-4-methylcyclohexyl)methyl]-7H-purin-2-yl)-1,2,4-oxadiazol-5(2H)-one], the IC50 was 9.58 nM.

As for `C[C@@H](Nc1nc(-c2noc(=O)[nH]2)nc2nc(-n3ccnc3)n(C[C@H]3CC[C@H](C)CC3)c12)C1CCC1` [Example 11.57, 3-(6-{[(1R)-1-cyclobutylethyl]amino}-8-(1H-imidazol-1-yl)-7-[(trans-4-methylcyclohexyl)methyl]-7H-purin-2-yl)-1,2,4-oxadiazol-5(4H)-one], the IC50 came to 16.4 nM.

As for `C[C@@H](Nc1nc(-c2noc(=O)[nH]2)nc2nc(N(C)[C@@H]3CCCC[C@@H]3O)n(C[C@H]3CC[C@H](C)CC3)c12)C1CCC1` (stereo in doubt) [Example 11.132, 3-(6-{[(1R)-1-cyclobutylethyl]amino}-8-{[(1R,2S)-2-hydroxycyclohexyl](methyl)amino}-7-[(trans-4-methylcyclohexyl)methyl]-7H-purin-2-yl)-1,2,4-oxadiazol-5(4H)-one], the IC50 was found to be 25.6 nM.

Still in this test, the particulars now being: Table 18; read-out: FRET IC50.
As to `CCC1CC=C(Cn2c(-c3cc(C(C)C)ccn3)nc3nc(C(=O)O)nc(N[C@H](C)C4CCC4)c32)CC1` (stereo partly drawn) [Example 18.23, 6-{[(1R)-1-cyclobutylethyl]amino}-7-[(4-ethylcyclohex-1-en-1-yl)methyl]-8-[4-(1-methylethyl)pyridin-2-yl]-7H-purine-2-carboxylic acid], the IC50 stood at 26.4 nM.

In the case of `CC[C@H]1CC[C@H](Cn2c(-c3cc(C)ccc3OC)nc3nc(C(=O)O)nc(N[C@H](C)C4CCC4)c32)CC1` [Example 18.16, 6-{[(1R)-1-cyclobutylethyl]amino}-7-[(trans-4-ethylcyclohexyl)methyl]-8-(2-methoxy-5-methylphenyl)-7H-purine-2-carboxylic acid], the IC50 came to 31.8 nM.

For `CCC1=CCC(Cn2c(-c3cc(C(C)C)ccn3)nc3nc(C(=O)O)nc(N[C@H](C)C4CCC4)c32)CC1` (stereo partly drawn) [Example 18.6, 6-(((R)-1-cyclobutylethyl)amino)-7-((4-ethylcyclohex-3-en-1-yl)methyl)-8-(4-isopropylpyridin-2-yl)-7H-purine-2-carboxylic acid], the IC50 was found to be 15.9 nM.

Staying with this test, now noted: Table 21; read-out: FRET IC50.
For the compound `CC(c1ccc(F)cc1)c1nc2nc(-c3noc(=O)[nH]3)nc(N[C@H](C)C3CCC3)c2n1C[C@H]1CC[C@H](C)CC1` (stereo partly drawn) [Example 21.31, 3-(6-{[(1R)-1-cyclobutylethyl]amino}-8-[1-(4-fluorophenyl)ethyl]-7-[(trans-4-methylcyclohexyl)methyl]-7H-purin-2-yl)-1,2,4-oxadiazol-5(4H)-one], the IC50 stood at 10.5 nM.

Staying with this test, now noted: Table 22; read-out: FRET IC50.
For the compound `COC1(c2nc3nc(-c4noc(=O)[nH]4)nc(N[C@H](C)C4CCC4)c3n2C[C@H]2CC[C@H](C)CC2)CCC1` [Example 22.69, 3-(6-{[(1R)-1-cyclobutylethyl]amino}-8-(1-methoxycyclobutyl)-7-[(trans-4-methylcyclohexyl)methyl] -7H-purin-2-yl)-1,2,4-oxadiazol-5(4H)-one], the IC50 is 4.54 nM.

`C[C@@H](Nc1nc(-c2noc(=O)[nH]2)nc2nc(C(F)c3ccccc3)n(C[C@H]3CC[C@H](C)CC3)c12)C1CCC1` (stereo partly drawn) [Example 22.66, 3-(6-{[(1R)-1-cyclobutylethyl]amino}-8-[fluoro(phenyl)methyl]-7-[(trans-4-methylcyclohexyl)methyl] -7H-purin-2-yl)-1,2,4-oxadiazol-5(4H)-one]: the IC50 stood at 7.12 nM.

The test is the same for the next values; noted with them: Table 23; read-out: FRET IC50.
On to `COC1(c2nc3nc(-c4noc(=O)[nH]4)nc(-c4cncc(Cl)c4)c3n2C[C@H]2CC[C@H](C)CC2)CCCCC1` [Example 23.75, 3-{6-(5-chloropyridin-3-yl)-8-(1-methoxycyclohexyl)-7-[(trans-4-methylcyclohexyl)methyl] -7H-purin-2-yl}-1,2,4-oxadiazol-5(4H)-one], for which the IC50 stood at 30.7 nM.

(Values after patent EP2951180B1, “2,6,7,8 SUBSTITUTED PURINES AS HDM2 INHIBITORS” (Merck Sharp & Dohme Corp., priority 2013, dated 2014).)
